Assays:
Type in all cases: biochemical
tubulin = assay: Cleavage of tubulin by tau 4R2N trimer (SDS-PAGE); conditions: 19.25 hrs at 37° C.
Protocol: In a result not shown, tau 4R2N trimer cut tubulin. In that study, Lane 1—tubulin, no incubation; Lane 2—tubulin incubated without tau; Lane 3—tubulin with tau 4R/2N trimer, no incubation; Lane 4—tubulin incubated with tau 4R2N trimer. […] Incubation of tubulin with tau4R2N trimer led to the formation of tubulin fragments and degradation of tubulin dimer.
Lyophilized tubulin (Cat# TL238, Cytoskeleton Inc.) was suspended in 200 μL buffer for 6 mg/mL solution. Samples were incubated for 19.25 hrs at 37° C. 10 μL 2× Laemmli sample buffer (BME) was added to each sample. Samples heated at 95° C. for 5 min in a thermal cycler with heated lid 5 min prior to loading.

[1] = system: Human APP 667-676 peptide; assay: Cleavage of APP 667-676 peptide (HPLC); conditions: 20 hr at 37° C.
Protocol: Human APP 667-676 peptide [[…](SEQ ID NO:14) (Anaspec, Fremont, Calif., USA)] was incubated 20 hr at 37° C. with or without […] tau 4R2N trimer protease and analyzed by reverse phase HPLC (SystemGold® 32Karat™ LC-CE System, Beckman Coulter, Inc.) using a linear gradient of 0 to 60% acetonitrile in 0.1% TFA on an analytical C18 column (12.5 cm×2.1 mm, […], Supelco). […] The asterisk indicates an artifactual peak unrelated to the peptide. Tau 4R2N trimer protease cut APP at the penultimate amino acid adjacent to the β-secretase (BACE) cut site thereby generating Aβ(1-42). Tau protease activity has been observed extracellularly in the CSF. Generation of Aβ(1-42) can stimulate inflammation within a neuron leading to BACE up-regulation. Furthermore Aβ(1-42) has been observed in plaques and can be converted to Aβ(1-42) by BACE cleavage of the N-terminal methionine. The implications are that tau protease may be the initial activation step for the amyloid cascade;

Tau 4R2N = molecular target: T1, Tau 4R2N (Homo sapiens, UniProt P10636); assay: Autoproteolytic activity of purified tau monomer, dimer and trimer (SDS-PAGE)
T1 construct: Stabilization buffer enables production of full length monomer, dimer and trimer for tau protease; made in house; host or cells: E. coli BL21 (DE3) Gold
T1 sequence (P10636 1-441 isoform P10636-8): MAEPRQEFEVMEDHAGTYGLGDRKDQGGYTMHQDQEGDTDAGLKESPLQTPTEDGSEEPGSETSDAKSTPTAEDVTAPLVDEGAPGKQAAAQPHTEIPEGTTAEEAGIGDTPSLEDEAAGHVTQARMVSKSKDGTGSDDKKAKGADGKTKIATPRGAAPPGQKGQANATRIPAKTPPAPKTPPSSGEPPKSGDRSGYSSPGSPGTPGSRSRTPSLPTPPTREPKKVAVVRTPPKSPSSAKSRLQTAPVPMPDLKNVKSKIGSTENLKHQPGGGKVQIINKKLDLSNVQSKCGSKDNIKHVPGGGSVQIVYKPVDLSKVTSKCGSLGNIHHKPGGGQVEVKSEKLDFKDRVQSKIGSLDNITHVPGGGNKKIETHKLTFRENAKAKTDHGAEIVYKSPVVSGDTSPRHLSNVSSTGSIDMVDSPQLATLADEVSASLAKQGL
Protocol: This example describes the identification of the autoproteolytic activity of tau oligomers.
Purified recombinant human tau 4R2N was prepared as described in the flow chart. Monomer, dimer and trimer species were purified preparative electrophoresis from a tau 4R2N preparation that had formed oligomers. The electrophoresis buffer contained 0.1% SDS which inhibited the proteolytic activity. Fractions containing the tau species were buffer exchanged into 25 mM Tris-HCl pH 7.4 using and Amicon ultrafiltration device (Merck Millipore, Billerica, Mass.), which led to restoration of tau autoproteolytic activity. Protein concentrations of the preparations were determined using the BCA kit (ThemoFisher Scientific). Samples were run on a pre-cast 4-20% polyacrylamide Tris-HCl gel (BioRad, Hercules, Calif.) without using reductant in order to visualize the disulfide mediated oligomers. The gel was stained with GelCodeBlue Safe (ThermoFisher Scientific, Rockford, Ill.). Lane 1: 5.2 μg of tau 4R2N oligomer standard; Lane 2: 2 microliter of monomer fraction before buffer exchange; Lane 3: 0.5 μg monomer after buffer exchange; Lane 4: […] of dimer fraction before buffer exchange; Lane 5: 0.5 μg dimer after buffer exchange; Lane 6: 20 μL trimer fraction before buffer exchange; Lane 7: 0.5 μg trimer after buffer exchange.
Tau 4R2N undergoes autoproteolytic cleavage (self-cleavage) when it forms disulfide-mediated oligomers upon incubation. Tau autoproteolyic activity co-purified with the dimer and trimer species. The amount of autoproteolytic activity was greatest with trimer which fragmented to the extent where no full size trimer remained after incubation. […] It was also shown that Tau autoproteolytic activity co-purified with dimer and trimer species. […] Full-length trimer digested completely into smaller fragments, and upon incubation, monomer formed an oligomeric ladder that produced a low level of autoproteolytic activity.
(§1) Monomer, Dimer, and Trimer of Tau 441 were purified under non-reducing conditions using continuous-elution electrophoresis. Fractions of each oligomer sample were pooled and buffer exchanged into stabilization buffer using an Amicon spin concentrator with a molecular weight cut-off of 30,000 daltons. 0.35 μg of each sample was incubated overnight at 37° C. while non-incubated control was kept on ice at 4° C. Next day, 2×SDS sample buffer without reductant was added to each sample and loaded onto a 4-20% gradient Tris-HCl Criterion Gel (Bio-Rad, Hercules, Calif.).
as §1, with “This example presents results from a contamination control study of tau protease. Monomer,” for “Monomer,”, “2× sodium dodecyl sulfate” for “2×SDS”
Lane 1—tau oligomer ladder standard; Lane 2—empty; Lane 3—purified monomer no incubation (fraction from purification plate); Lane 4—purified monomer without incubation; Lane 5—purified monomer with incubation; Lane 6—purified dimer without incubation; Lane 7—purified dimer with incubation; Lane 8—purified trimer without incubation; purified trimer with incubation overnight at 37° C. Lanes 3-9 were treated with sample buffer containing β-mercaptoethanol (BME).

## tau 4R2N trimer: purified disulfide-mediated trimer species of recombinant human tau 4R2N
tubulin
  cutting of tubulin: cut tubulin
[1]
  cutting of APP 667-676 peptide: cuts APP 667-676 peptide
Tau 4R2N; 0.35 μg, overnight at 37° C., equal sample volumes from purification
  degradation in contamination control study (Example 3): preferentially degraded
Tau 4R2N; after buffer exchange into 25 mM Tris-HCl pH 7.4, incubation at 37° C.
  autoproteolytic activity (Example 1): greatest
